Assay results published in patent US11498899B2, “Nitrone herbicides” (FMC Corporation, priority 2016, dated 2022).

Key:
[1] = test system: foxtail, giant (giant foxtail, Setaria faberii); experiment: Test A preemergence, visual injury rating 0-100; assay type: in vivo
[2] = test system: ryegrass, Italian (Italian ryegrass, Lolium multiflorum); experiment: Test A preemergence, visual injury rating 0-100; assay type: in vivo
[3] = test system: pigweed (Amaranthus retroflexus); experiment: Test A preemergence, visual injury rating 0-100; assay type: in vivo
[4] = test system: ragweed (common ragweed, Ambrosia elatior); experiment: Test A preemergence, visual injury rating 0-100; assay type: in vivo
kochia (Kochia scoparia) [5] = experiment: Test A preemergence, visual injury rating 0-100; assay type: in vivo
rice (Oryza sativa) = experiment: Test B flooded paddy test, visual rating 0-100 (0 no effect, 100 complete control); conditions: Flood, 250 g ai/ha, applied to paddy water, rated after 13 to 15 days
[6] = test system: barnyardgrass (Echinochloa crus-galli); experiment: Test B flooded paddy test, visual rating 0-100; conditions: Flood, 250 g ai/ha, applied to paddy water, rated after 13 to 15 days
[7] = test system: ducksalad (Heteranthera limosa); experiment: Test B flooded paddy test, visual rating 0-100; conditions: Flood, 250 g ai/ha, applied to paddy water, rated after 13 to 15 days
[8] = test system: barnyardgrass (Echinochloa crus-galli); experiment: Test A preemergence, visual injury rating 0-100 (0 no effect, 100 complete control); assay type: in vivo
[9] = test system: wheat (Triticum aestivum); experiment: Test A postemergence, visual injury rating 0-100; assay type: in vivo; conditions: 0 to 100 scale
[10] = test system: galium (catchweed bedstraw, Galium aparine); experiment: Test A postemergence, visual injury rating 0-100; assay type: in vivo; conditions: 0 to 100 scale
[11] = test system: blackgrass (Alopecurus myosuroides); experiment: Test A postemergence, visual injury rating 0-100; assay type: in vivo; conditions: 0 to 100 scale
[12] = test system: foxtail, giant (giant foxtail, Setaria faberii); experiment: Test A postemergence, visual injury rating 0-100; assay type: in vivo; conditions: 0 to 100 scale
[13] = test system: ryegrass, Italian (Italian ryegrass, Lolium multiflorum); experiment: Test A postemergence, visual injury rating 0-100; assay type: in vivo; conditions: 0 to 100 scale
[14] = test system: pigweed (Amaranthus retroflexus); experiment: Test A postemergence, visual injury rating 0-100; assay type: in vivo; conditions: 0 to 100 scale
[15] = test system: ragweed (common ragweed, Ambrosia elatior); experiment: Test A postemergence, visual injury rating 0-100; assay type: in vivo; conditions: 0 to 100 scale
kochia (Kochia scoparia) [16] = experiment: Test A postemergence, visual injury rating 0-100; assay type: in vivo; conditions: 0 to 100 scale
corn (Zea mays) = experiment: Test A postemergence, visual injury rating 0-100; assay type: in vivo; conditions: 0 to 100 scale
[17] = test system: barnyardgrass (Echinochloa crus-galli); experiment: Test A postemergence, visual injury rating 0-100; assay type: in vivo; conditions: 0 to 100 scale
[18] = 125 g ai/ha, 0 to 100 scale (0 no effect, 100 complete control), approx. 10 days

Row | SMILES | Foxtail, Giant plant response rating (0 to 100 scale) ([1]; 500 g ai/ha) | Ryegrass, Italian plant response rating (0 to 100 scale) ([2]; 500 g ai/ha) | Pigweed plant response rating (0 to 100 scale) ([3]; 500 g ai/ha) | Ragweed plant response rating (0 to 100 scale) ([4]; 500 g ai/ha) | Kochia plant response rating (0 to 100 scale) (kochia (Kochia scoparia) [5]; 500 g ai/ha) | Rice plant response rating (0 to 100 scale) (rice (Oryza sativa)) | Barnyardgrass plant response rating (0 to 100 scale) [6] | Ducksalad plant response rating (0 to 100 scale) [7] | Barnyardgrass plant response rating (0 to 100 scale) ([8]; 500 g ai/ha) | Wheat plant response rating ([9]; 125 g ai/ha) | Wheat plant response rating ([9]; 500 g ai/ha) | Galium plant response rating ([10]; 125 g ai/ha) | Galium plant response rating ([10]; 500 g ai/ha) | Blackgrass plant response rating ([11]; 125 g ai/ha) | Blackgrass plant response rating ([11]; 500 g ai/ha) | Foxtail, Giant plant response rating ([12]; 125 g ai/ha) | Foxtail, Giant plant response rating ([12]; 500 g ai/ha) | Ryegrass, Italian plant response rating ([13]; 125 g ai/ha) | Ryegrass, Italian plant response rating ([13]; 500 g ai/ha) | Pigweed plant response rating ([14]; 125 g ai/ha) | other results
1 | CC1=[N+]([O-])C(C(=O)Nc2cccc(F)c2F)C(c2cccc3c2CCC3)C1 (racemic) [Compound 118] | 100 | 100 | 80 | 90 | 80 | 15 | 95 | 90 | 100 | 40 | 80 | 50 | 50 | 50 | 70 | 50 | 90 | 50 | 90 | 0 | Foxtail, Giant plant response rating [1, 18]: 90; Ryegrass, Italian plant response rating [2, 18]: 90; Pigweed plant response rating [3, 18]: 40; Ragweed plant response rating [4, 18]: 70; Kochia plant response rating (kochia (Kochia scoparia) [5]; [18]): 20; Barnyardgrass plant response rating [8, 18]: 90; Pigweed plant response rating ([14]; 500 g ai/ha): 30; Ragweed plant response rating ([15]; 125 g ai/ha): 0; Ragweed plant response rating ([15]; 500 g ai/ha): 70; Kochia plant response rating (kochia (Kochia scoparia) [16]; 125 g ai/ha): 50; Kochia plant response rating (kochia (Kochia scoparia) [16]; 500 g ai/ha): 60; Corn plant response rating (corn (Zea mays); 125 g ai/ha): 70; Corn plant response rating (corn (Zea mays); 500 g ai/ha): 80; Barnyardgrass plant response rating ([17]; 125 g ai/ha): 60; Barnyardgrass plant response rating ([17]; 500 g ai/ha): 80
2 | COc1ccc(C2CC(C)=[N+]([O-])C2C(=O)Nc2cccc(F)c2F)cc1C(F)(F)F (racemic) [Compound 74] | 90 | 90 | 60 | 40 | 90 | 0 | 45 | 20 | 90 | 60 | 60 | 20 | 50 | 70 | 70 | 60 | 80 | 0 | 50 | 20 | Foxtail, Giant plant response rating (0 to 100 scale) ([1]; 125 g ai/ha): 90; Ryegrass, Italian plant response rating (0 to 100 scale) ([2]; 125 g ai/ha): 90; Pigweed plant response rating (0 to 100 scale) ([3]; 125 g ai/ha): 0; Ragweed plant response rating (0 to 100 scale) ([4]; 125 g ai/ha): 40; Kochia plant response rating (0 to 100 scale) (kochia (Kochia scoparia) [5]; 125 g ai/ha): 30; Barnyardgrass plant response rating (0 to 100 scale) ([8]; 125 g ai/ha): 90; Pigweed plant response rating ([14]; 500 g ai/ha): 40; Ragweed plant response rating ([15]; 125 g ai/ha): 0; Ragweed plant response rating ([15]; 500 g ai/ha): 20; Kochia plant response rating (kochia (Kochia scoparia) [16]; 125 g ai/ha): 0; Kochia plant response rating (kochia (Kochia scoparia) [16]; 500 g ai/ha): 10; Corn plant response rating (corn (Zea mays); 125 g ai/ha): 40; Corn plant response rating (corn (Zea mays); 500 g ai/ha): 80; Barnyardgrass plant response rating ([17]; 125 g ai/ha): 80; Barnyardgrass plant response rating ([17]; 500 g ai/ha): 90
3 | CC1=[N+]([O-])[C@H](C(=O)Nc2cccc(F)c2F)[C@@H](c2ccc(C(F)F)cc2)C1 (relative stereo) [Compound 93, rel-(2S,3R)-3-(4-Difluoromethyl)phenyl)-N-(2,3-difluorophenyl) 3,4-dihydro-5-methyl-2H-pyrrole-2-carboxamide 1-oxide] | 90 | 90 | 90 | 90 | 80 | 15 | 70 | 100 | 90 | 60 | 80 | 60 | 70 | 60 | 70 | 80 | 90 | 60 | 70 | 50 | Foxtail, Giant plant response rating (0 to 100 scale) ([1]; 125 g ai/ha): 90; Ryegrass, Italian plant response rating (0 to 100 scale) ([2]; 125 g ai/ha): 70; Pigweed plant response rating (0 to 100 scale) ([3]; 125 g ai/ha): 80; Ragweed plant response rating (0 to 100 scale) ([4]; 125 g ai/ha): 70; Kochia plant response rating (0 to 100 scale) (kochia (Kochia scoparia) [5]; 125 g ai/ha): 30; Barnyardgrass plant response rating (0 to 100 scale) ([8]; 125 g ai/ha): 90; Pigweed plant response rating ([14]; 500 g ai/ha): 80; Ragweed plant response rating ([15]; 125 g ai/ha): 0; Ragweed plant response rating ([15]; 500 g ai/ha): 70; Kochia plant response rating (kochia (Kochia scoparia) [16]; 125 g ai/ha): 0; Kochia plant response rating (kochia (Kochia scoparia) [16]; 500 g ai/ha): 80; Corn plant response rating (corn (Zea mays); 125 g ai/ha): 60; Corn plant response rating (corn (Zea mays); 500 g ai/ha): 90; Barnyardgrass plant response rating ([17]; 125 g ai/ha): 70; Barnyardgrass plant response rating ([17]; 500 g ai/ha): 90
4 | CC1=[N+]([O-])C(C(=O)Nc2cccc(F)c2F)C(c2ccc(C(F)(F)F)c(Br)c2)C1 (racemic) [Compound 73] | 90 | 90 | 70 | 80 | 60 | 0 | 0 | 0 | 90 | 0 | 60 | 10 | 50 | 40 | 80 | 40 | 70 | 0 | 60 | 30 | Foxtail, Giant plant response rating (0 to 100 scale) ([1]; 125 g ai/ha): 80; Ryegrass, Italian plant response rating (0 to 100 scale) ([2]; 125 g ai/ha): 50; Pigweed plant response rating (0 to 100 scale) ([3]; 125 g ai/ha): 40; Ragweed plant response rating (0 to 100 scale) ([4]; 125 g ai/ha): 50; Kochia plant response rating (0 to 100 scale) (kochia (Kochia scoparia) [5]; 125 g ai/ha): 20; Barnyardgrass plant response rating (0 to 100 scale) ([8]; 125 g ai/ha): 90; Pigweed plant response rating ([14]; 500 g ai/ha): 70; Ragweed plant response rating ([15]; 125 g ai/ha): 0; Ragweed plant response rating ([15]; 500 g ai/ha): 20; Kochia plant response rating (kochia (Kochia scoparia) [16]; 125 g ai/ha): 10; Kochia plant response rating (kochia (Kochia scoparia) [16]; 500 g ai/ha): 20; Corn plant response rating (corn (Zea mays); 125 g ai/ha): 50; Corn plant response rating (corn (Zea mays); 500 g ai/ha): 70; Barnyardgrass plant response rating ([17]; 125 g ai/ha): 30; Barnyardgrass plant response rating ([17]; 500 g ai/ha): 70
5 | CC1=[N+]([O-])C(C(=O)Nc2cccc(F)c2F)C(c2ccc(F)cc2Oc2ncc(F)cn2)C1 (racemic) [Compound 68] | 100 | 90 | 0 | 70 | 30 | 0 | 0 | 0 | 100 | 30 | 80 | 30 | 40 | 70 | 70 | 0 | 90 | 20 | 90 | 0 | Foxtail, Giant plant response rating (0 to 100 scale) ([1]; 125 g ai/ha): 50; Ryegrass, Italian plant response rating (0 to 100 scale) ([2]; 125 g ai/ha): 20; Pigweed plant response rating (0 to 100 scale) ([3]; 125 g ai/ha): 0; Ragweed plant response rating (0 to 100 scale) ([4]; 125 g ai/ha): 0; Kochia plant response rating (0 to 100 scale) (kochia (Kochia scoparia) [5]; 125 g ai/ha): 0; Barnyardgrass plant response rating (0 to 100 scale) ([8]; 125 g ai/ha): 20; Pigweed plant response rating ([14]; 500 g ai/ha): 30; Ragweed plant response rating ([15]; 125 g ai/ha): 0; Ragweed plant response rating ([15]; 500 g ai/ha): 0; Kochia plant response rating (kochia (Kochia scoparia) [16]; 125 g ai/ha): 0; Kochia plant response rating (kochia (Kochia scoparia) [16]; 500 g ai/ha): 30; Corn plant response rating (corn (Zea mays); 125 g ai/ha): 20; Corn plant response rating (corn (Zea mays); 500 g ai/ha): 90; Barnyardgrass plant response rating ([17]; 125 g ai/ha): 0; Barnyardgrass plant response rating ([17]; 500 g ai/ha): 40
